Data from patent US10168342B2, “Lipid probes and uses thereof” (THE SCRIPPS RESEARCH INSTITUTE, priority 2015, dated 2019).
Read-outs that look alike come from different tables or passages of the source.

Assays:
[1] = biological target: AEA-DA lipid probe targets in Neuro2a cells (Mus musculus, UniProt Q3UV70); details: protein Pdp1; Neuro2a cells; competitor 25 μM
[2] = biological target: AEA-DA lipid probe targets in Neuro2a cells (Mus musculus, UniProt Q8BVU5); details: protein Nudt9, Neuro2a cells
[3] = biological target: T1, AEA-DA lipid probe targets in Neuro2a cells (Mus musculus, UniProt P04223)
T1 sequence (P04223 22-369): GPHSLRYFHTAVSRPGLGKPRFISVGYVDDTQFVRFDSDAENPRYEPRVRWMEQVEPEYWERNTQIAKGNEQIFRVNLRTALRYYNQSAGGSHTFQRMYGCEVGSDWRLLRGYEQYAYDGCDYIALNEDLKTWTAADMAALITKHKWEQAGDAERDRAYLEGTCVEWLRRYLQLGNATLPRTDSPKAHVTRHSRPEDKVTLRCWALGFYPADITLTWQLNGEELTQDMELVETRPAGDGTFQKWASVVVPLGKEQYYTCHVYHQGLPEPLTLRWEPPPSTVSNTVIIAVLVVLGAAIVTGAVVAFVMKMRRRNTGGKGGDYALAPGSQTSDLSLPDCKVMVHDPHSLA

[4] = biological target: T2, AEA-DA lipid probe targets in Neuro2a cells (Mus musculus, UniProt Q921T2)
T2 sequence (Q921T2 1-595): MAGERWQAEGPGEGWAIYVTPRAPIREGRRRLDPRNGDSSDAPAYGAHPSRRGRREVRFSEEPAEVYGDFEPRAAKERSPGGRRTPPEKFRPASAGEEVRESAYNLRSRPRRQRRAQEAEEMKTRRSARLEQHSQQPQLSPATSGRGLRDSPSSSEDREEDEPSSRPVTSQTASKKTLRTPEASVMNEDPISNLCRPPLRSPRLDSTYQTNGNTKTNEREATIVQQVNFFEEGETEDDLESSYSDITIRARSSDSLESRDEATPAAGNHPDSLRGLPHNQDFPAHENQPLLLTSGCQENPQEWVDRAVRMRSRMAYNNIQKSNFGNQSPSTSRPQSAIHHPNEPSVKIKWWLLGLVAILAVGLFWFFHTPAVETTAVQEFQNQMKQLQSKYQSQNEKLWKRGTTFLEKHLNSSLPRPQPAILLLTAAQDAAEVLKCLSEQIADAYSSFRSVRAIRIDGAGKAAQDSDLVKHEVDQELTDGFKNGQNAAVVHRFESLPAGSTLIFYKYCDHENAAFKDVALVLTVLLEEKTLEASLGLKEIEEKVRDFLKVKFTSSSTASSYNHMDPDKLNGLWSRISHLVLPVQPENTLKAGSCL

[5] = biological target: T3, AEA-DA lipid probe targets in Neuro2a cells (Mus musculus, UniProt Q11011)
T3 sequence (Q11011 1-920): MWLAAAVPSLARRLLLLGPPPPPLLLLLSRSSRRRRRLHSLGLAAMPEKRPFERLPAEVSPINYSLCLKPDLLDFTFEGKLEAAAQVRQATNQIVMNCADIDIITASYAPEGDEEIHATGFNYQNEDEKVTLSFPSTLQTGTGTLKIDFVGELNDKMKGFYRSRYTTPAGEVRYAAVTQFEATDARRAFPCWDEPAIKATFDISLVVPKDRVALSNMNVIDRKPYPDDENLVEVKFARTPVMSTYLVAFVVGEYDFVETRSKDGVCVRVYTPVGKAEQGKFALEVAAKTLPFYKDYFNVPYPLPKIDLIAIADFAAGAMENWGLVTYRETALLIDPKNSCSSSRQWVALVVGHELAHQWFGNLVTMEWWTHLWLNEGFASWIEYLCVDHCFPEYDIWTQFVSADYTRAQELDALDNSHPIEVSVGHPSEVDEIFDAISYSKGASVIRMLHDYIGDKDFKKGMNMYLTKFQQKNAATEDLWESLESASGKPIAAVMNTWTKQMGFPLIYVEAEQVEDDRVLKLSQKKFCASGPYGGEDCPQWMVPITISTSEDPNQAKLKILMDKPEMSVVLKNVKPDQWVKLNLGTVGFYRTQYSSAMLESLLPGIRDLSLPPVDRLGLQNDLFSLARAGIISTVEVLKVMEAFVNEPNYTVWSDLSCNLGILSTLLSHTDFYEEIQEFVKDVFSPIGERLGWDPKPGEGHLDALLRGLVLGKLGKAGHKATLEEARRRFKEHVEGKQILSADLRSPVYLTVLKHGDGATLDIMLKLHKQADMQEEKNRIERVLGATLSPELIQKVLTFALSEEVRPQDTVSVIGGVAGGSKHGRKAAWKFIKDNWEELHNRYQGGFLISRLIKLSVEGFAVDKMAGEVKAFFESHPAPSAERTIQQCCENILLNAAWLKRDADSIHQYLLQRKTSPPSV

[6] = biological target: AEA-DA lipid probe targets in Neuro2a cells (Mus musculus, UniProt O88545)
[7] = biological target: AEA-DA lipid probe targets in Neuro2a cells (Mus musculus, UniProt Q9JKC6)
[8] = biological target: AEA-DA lipid probe targets in Neuro2a cells (Mus musculus, UniProt Q8VCL2); details: competitor 25 μM
Chain of AEA-DA lipid probe targets in Neuro2a cells (Mus musculus, UniProt Q8VCL2) (Q8VCL2 42-255): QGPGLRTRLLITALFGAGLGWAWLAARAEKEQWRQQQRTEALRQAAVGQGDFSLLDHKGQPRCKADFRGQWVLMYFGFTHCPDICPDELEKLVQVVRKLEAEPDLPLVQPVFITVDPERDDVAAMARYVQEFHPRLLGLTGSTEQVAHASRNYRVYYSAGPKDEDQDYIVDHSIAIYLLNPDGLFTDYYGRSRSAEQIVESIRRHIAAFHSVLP

Chain of AEA-DA lipid probe targets in Neuro2a cells (Mus musculus, UniProt Q9JKC6) (Q9JKC6 whole entry): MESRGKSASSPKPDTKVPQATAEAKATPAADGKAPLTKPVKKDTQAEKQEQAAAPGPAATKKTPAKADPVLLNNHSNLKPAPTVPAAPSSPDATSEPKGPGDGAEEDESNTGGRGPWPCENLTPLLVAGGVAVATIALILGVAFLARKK
Chain of AEA-DA lipid probe targets in Neuro2a cells (Mus musculus, UniProt Q8BVU5) (Q8BVU5 47-350): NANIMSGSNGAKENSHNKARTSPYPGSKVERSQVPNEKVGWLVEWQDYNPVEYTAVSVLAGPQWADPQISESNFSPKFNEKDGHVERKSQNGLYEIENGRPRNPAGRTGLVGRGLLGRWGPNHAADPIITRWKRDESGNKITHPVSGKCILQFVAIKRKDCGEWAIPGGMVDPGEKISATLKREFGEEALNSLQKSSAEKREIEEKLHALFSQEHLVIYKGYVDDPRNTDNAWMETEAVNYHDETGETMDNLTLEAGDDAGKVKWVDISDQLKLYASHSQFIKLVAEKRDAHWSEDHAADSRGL
Chain of AEA-DA lipid probe targets in Neuro2a cells (Mus musculus, UniProt O88545) (O88545 whole entry): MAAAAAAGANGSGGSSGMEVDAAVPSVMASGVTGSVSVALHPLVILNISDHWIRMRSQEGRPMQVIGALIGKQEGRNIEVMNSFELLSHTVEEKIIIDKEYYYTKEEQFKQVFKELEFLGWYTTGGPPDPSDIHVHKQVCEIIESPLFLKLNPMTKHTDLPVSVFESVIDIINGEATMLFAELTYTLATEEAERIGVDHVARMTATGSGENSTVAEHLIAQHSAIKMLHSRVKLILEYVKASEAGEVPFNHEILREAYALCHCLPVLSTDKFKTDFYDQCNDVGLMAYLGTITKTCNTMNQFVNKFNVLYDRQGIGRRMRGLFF
Chain of AEA-DA lipid probe targets in Neuro2a cells (Mus musculus, UniProt Q3UV70) (Q3UV70 72-538): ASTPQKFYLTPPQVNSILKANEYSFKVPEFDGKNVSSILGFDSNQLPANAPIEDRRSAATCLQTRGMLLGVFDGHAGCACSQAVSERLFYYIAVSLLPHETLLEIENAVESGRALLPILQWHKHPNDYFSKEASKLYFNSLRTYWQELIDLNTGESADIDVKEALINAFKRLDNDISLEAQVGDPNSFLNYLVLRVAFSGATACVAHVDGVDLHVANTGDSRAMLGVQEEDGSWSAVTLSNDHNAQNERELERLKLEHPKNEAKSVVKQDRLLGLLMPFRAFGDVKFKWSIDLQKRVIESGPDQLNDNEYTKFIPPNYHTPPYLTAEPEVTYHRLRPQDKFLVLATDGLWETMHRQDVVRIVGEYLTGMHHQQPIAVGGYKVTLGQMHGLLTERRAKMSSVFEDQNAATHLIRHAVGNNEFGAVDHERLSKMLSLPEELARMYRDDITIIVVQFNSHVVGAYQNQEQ

O=C(/C=C/c1cccnc1)NCCCCC1CCN(C(=O)c2ccccc2)CC1 [FK-866, reference compound]
SILAC ratio (AEA-DA competition) [1]: 0.9

CCCCC/C=C\C/C=C\C/C=C\C/C=C\CCCC(=O)NCCO [AEA, anandamide, reference compound]
SILAC ratio (AEA-DA competition) ([2]; competitor 200 μM): 1.0 | SILAC ratio H2-K1 ([3]; competitor 200 μM): 1.2 | SILAC ratio Tor1aip1 ([4]; competitor 200 μM): 1.5 | SILAC ratio Npepps ([5]; competitor 200 μM): 1.1 | SILAC ratio Cops6 ([6]; competitor 200 μM): 1.4 | SILAC ratio Cend1 ([7]; competitor 200 μM): 1.7

CN1CCN(C(=O)c2c(-c3ccccc3)c3cc([N+](=O)[O-])ccc3n2C)CC1 [KML110, (1-Methyl-5-nitro-3-phenyl-1H-indol-2-yl)(4-methylpiperazin-1-yl)methanone]
SILAC ratio (AEA-DA competition) ([2]; competitor 25 μM): 1.9 | SILAC ratio Sco2 [8]: 1.5 | SILAC ratio Cend1 ([7]; competitor 25 μM): 0.9

C=CCN(C)CCCCCCOc1ccc(C(=O)c2ccc(Br)cc2)c(F)c1 [Ro 48-8071, reference compound]
SILAC ratio Sco2 [8]: 1.0

CN1CCN(C(=O)c2[nH]c3ccc([N+](=O)[O-])cc3c2-c2ccccc2)CC1 [MJN228, (4-Methylpiperazin-1-yl)(5-nitro-3-phenyl-1H-indol-2-yl)methanone]
SILAC ratio H2-K1 ([3]; competitor 10 μM): 1.0 | SILAC ratio H2-K1 ([3]; competitor 50 μM): 0.9 | SILAC ratio H2-K1 ([3]; competitor 100 μM): 1.0 | SILAC ratio Tor1aip1 ([4]; competitor 10 μM): 1.3 | SILAC ratio Tor1aip1 ([4]; competitor 25 μM): 1.3 | SILAC ratio Tor1aip1 ([4]; competitor 50 μM): 1.3 | SILAC ratio Tor1aip1 ([4]; competitor 100 μM): 2.0 | SILAC ratio Npepps ([5]; competitor 25 μM): 1.5 | SILAC ratio Npepps ([5]; competitor 100 μM): 4.3 | SILAC ratio Cops6 ([6]; competitor 100 μM): 1.2 | SILAC ratio (AEA-DA competition) [1]: 1.4
